Source: the supplement of paper PMC10307832

Assays:
Test in all cases: relative viability (nuclei count vs DMSO), 5 days (fraction); higher = more cells survive
KIN001-266 + Phenformin = compound: CCN1CCC(CC1)N2C=C(N=N2)CNC3=CC4=C(C(=CN=C4C(=C3)Cl)C#N)NC5=CC(=C(C=C5)F)Cl [KIN001-266] + N=C(N)NC(=N)NCCc1ccccc1 [Phenformin] (partner 250 µM)
In short: (§1)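 Lung cancer cell lines were pin-tool dosed in 1536-well plates on the day after seeding, with either a lone drug or a fixed anchor-drug dose plus five library-drug doses (not always all listed) in √10 steps. Nuclei were counted on 4× images after 5 days. Relative viability is the ratio of treated-well to vehicle-well nuclei counts, with each value a median of duplicate plates.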

KIN001-266 + Lapatinib = compound: CCN1CCC(CC1)N2C=C(N=N2)CNC3=CC4=C(C(=CN=C4C(=C3)Cl)C#N)NC5=CC(=C(C=C5)F)Cl [KIN001-266] + CS(=O)(=O)CCNCc1ccc(-c2ccc3ncnc(Nc4ccc(OCc5cccc(F)c5)c(Cl)c4)c3c2)o1 [Lapatinib] (partner 2 µM)
In short: as §1

KIN001-266 + Olaparib = compound: CCN1CCC(CC1)N2C=C(N=N2)CNC3=CC4=C(C(=CN=C4C(=C3)Cl)C#N)NC5=CC(=C(C=C5)F)Cl [KIN001-266] + O=C(c1cc(Cc2n[nH]c(=O)c3ccccc23)ccc1F)N1CCN(C(=O)C2CC2)CC1 [Olaparib] (partner 8 µM)
In short: as §1

KIN001-266 + Trametinib = compound: CCN1CCC(CC1)N2C=C(N=N2)CNC3=CC4=C(C(=CN=C4C(=C3)Cl)C#N)NC5=CC(=C(C=C5)F)Cl [KIN001-266] + CC(=O)Nc1cccc(-n2c(=O)n(C3CC3)c(=O)c3c(Nc4ccc(I)cc4F)n(C)c(=O)c(C)c32)c1 [Trametinib] (partner 0.02 µM)
In short: as §1

| Cell Line | relative viability (KIN001-266 + Phenformin; first compound 0.08 µM) | relative viability (KIN001-266 + Phenformin; first compound 0.253 µM) | relative viability (KIN001-266 + Phenformin; first compound 0.8 µM) | relative viability (KIN001-266 + Phenformin; first compound 2.53 µM) | relative viability (KIN001-266 + Phenformin; first compound 8 µM) | relative viability (KIN001-266 + Lapatinib; first compound 0.08 µM) | relative viability (KIN001-266 + Lapatinib; first compound 0.253 µM) | relative viability (KIN001-266 + Lapatinib; first compound 0.8 µM) | relative viability (KIN001-266 + Lapatinib; first compound 2.53 µM) | relative viability (KIN001-266 + Lapatinib; first compound 8 µM) | relative viability (KIN001-266 + Olaparib; first compound 0.08 µM) | relative viability (KIN001-266 + Olaparib; first compound 0.253 µM) | relative viability (KIN001-266 + Olaparib; first compound 0.8 µM) | relative viability (KIN001-266 + Olaparib; first compound 2.53 µM) | relative viability (KIN001-266 + Olaparib; first compound 8 µM) | relative viability (KIN001-266 + Trametinib; first compound 0.08 µM) | relative viability (KIN001-266 + Trametinib; first compound 0.253 µM) | relative viability (KIN001-266 + Trametinib; first compound 0.8 µM) | relative viability (KIN001-266 + Trametinib; first compound 2.53 µM) | relative viability (KIN001-266 + Trametinib; first compound 8 µM) |
| --- | --- | --- | --- | --- | --- | --- | --- | --- | --- | --- | --- | --- | --- | --- | --- | --- | --- | --- | --- | --- |
| HARA | 0.455 | 0.483 | 0.433 | 0.457 | 0.295 | 0.929 | 0.689 | 0.842 | 0.823 | 0.657 | 0.798 | 0.762 | 0.806 | 0.559 | 0.467 | 0.634 | 0.868 | 0.91 | 0.858 | 0.424 |
| NCI-H2126 | 0.535 | 0.519 | 0.546 | 0.555 | 0.5 | 0.796 | 0.757 | 0.765 | 0.676 | 0.734 | 0.896 | 0.925 | 0.943 | 0.848 | 0.842 | 0.583 | 0.554 | 0.621 | 0.568 | 0.518 |
| LXF-289 | 0.497 | 0.522 | 0.497 | 0.534 | 0.54 | 0.901 | 0.898 | 0.862 | 0.865 | 0.96 | 1.01 | 1.02 | 1.03 | 1.01 | 1.03 | 0.678 | 0.683 | 0.683 | 0.679 | 0.708 |
| NCI-H460 | 0.499 | 0.506 | 0.528 | 0.475 | 0.433 | 0.891 | 0.933 | 1.13 | 1 | 0.954 | 0.418 | 0.447 | 0.466 | 0.308 | 0.409 | 0.204 | 0.225 | 0.121 | 0.135 | 0.108 |
| NCI-H1395 | 0.453 | 0.421 | 0.503 | 0.417 | 0.442 | 1.28 | 1.13 | 1.25 | 0.935 | 1.16 | 0.478 | 0.441 | 0.447 | 0.429 | 0.427 | 1.02 | 1.11 | 1.08 | 0.925 | 0.985 |
| NCI-H2170 | 0.38 | 0.383 | 0.377 | 0.358 | 0.334 | 0.29 | 0.268 | 0.266 | 0.247 | 0.255 | 0.634 | 0.548 | 0.541 | 0.515 | 0.416 | 0.969 | 0.872 | 0.96 | 0.934 | 0.822 |
| NCI-H2009 | 0.455 | 0.432 | 0.441 | 0.319 | 0.262 | 0.981 | 1.07 | 0.905 | 0.927 | 0.645 | 0.721 | 0.667 | 0.657 | 0.65 | 0.321 | 0.296 | 0.313 | 0.273 | 0.23 | 0.253 |
